Assay: xn = mol fraction of the nth substance listed
Conditions: Liquid, Vibrating tube method

CCCCCCCCCC [decane] + CCCCCCCC
mass density [kg/m3]
Conditions	x2 = 0.0616	x2 = 0.2801	x2 = 0.5314	x2 = 0.7736
353.12 K, 10000 kPa	–	687.61	680.99	673.43
353.12 K, 10990 kPa	693.88	688.64	682.03	674.52
353.12 K, 12000 kPa	694.85	689.64	683.07	675.55
353.12 K, 13000 kPa	695.8	690.64	684.09	676.59
353.12 K, 14000 kPa	696.76	691.6	685.09	677.61
353.12 K, 15000 kPa	697.7	692.59	686.08	678.66
353.12 K, 16000 kPa	698.61	693.55	687.05	679.66
353.12 K, 17000 kPa	699.52	694.46	688	680.68
353.12 K, 18000 kPa	700.43	695.35	688.93	681.63
353.12 K, 19000 kPa	701.32	696.27	689.85	682.58
353.12 K, 20000 kPa	702.19	697.16	690.77	683.51
353.12 K, 21000 kPa	703.05	698.02	691.66	684.41
353.12 K, 22000 kPa	703.89	698.88	692.54	685.32
353.12 K, 23000 kPa	704.72	699.72	693.39	686.21
353.12 K, 24000 kPa	705.52	700.52	694.23	687.06
353.12 K, 25000 kPa	706.29	701.34	695.07	687.92
363.02 K, 1000 kPa	–	–	662.89	–
363.02 K, 2000 kPa	–	–	664.16	–
363.02 K, 3000 kPa	–	–	665.39	–
363.02 K, 4000 kPa	–	–	666.61	–
363.02 K, 5000 kPa	–	–	667.85	–
363.02 K, 6000 kPa	–	–	669.05	–
363.02 K, 7000 kPa	–	–	670.24	–
363.02 K, 8000 kPa	–	–	671.39	–
363.02 K, 9000 kPa	–	–	672.53	–
363.02 K, 10000 kPa	–	–	673.66	–
363.02 K, 10990 kPa	–	–	674.79	–
363.02 K, 12000 kPa	–	–	675.87	–
363.02 K, 13000 kPa	–	–	676.95	–
363.02 K, 14000 kPa	–	–	678.01	–
363.02 K, 15000 kPa	–	–	679.06	–
363.02 K, 16000 kPa	–	–	680.09	–
363.02 K, 17000 kPa	–	–	681.1	–
363.02 K, 18000 kPa	–	–	682.1	–
363.02 K, 19000 kPa	–	–	683.1	–
363.02 K, 20000 kPa	–	–	684.05	–
363.02 K, 21000 kPa	–	–	685	–
363.02 K, 22000 kPa	–	–	685.91	–
363.02 K, 23000 kPa	–	–	686.82	–
363.02 K, 24000 kPa	–	–	687.69	–
363.02 K, 25000 kPa	–	–	688.57	–
363.03 K, 1000 kPa	675.72	–	–	–
363.03 K, 2000 kPa	676.86	–	–	–
363.03 K, 3000 kPa	678.03	–	–	–
363.03 K, 4000 kPa	679.17	–	–	–
363.03 K, 5000 kPa	680.28	–	–	–
363.03 K, 6000 kPa	681.38	–	–	–

From the NIST ThermoML archive (doi:10.1016/j.jct.2011.08.016)
